Test results from patent US20220372013A2, “PIPERIDINE-2,6-DIONE DERIVATIVES AND CROHN'S DISEASE TREATING” (Tianjin Hemay Pharmaceutical Sci-Tech Co., Ltd, priority 2016, published 2022).
Marks after values point to notes of the source that are not given here.

Tests used:
[1] = test system: DNBS-Induced Inflammatory Bowel Disease Models in Rats; test: Biological Example 2: DNBS-induced inflammatory bowel disease models in rats; assay type: in vivo, Wistar rats; conditions: 0.1 mg/Kg i.g. qd × 6; sixth day; Mean ± SD
Method: 110 male Wistar rats were fasted for 40 hours. A 5% glucose injection (10 mL/Kg) was administered subcutaneously during fasting. 48 rats with normal conditions and moderate body weight were selected from the fasting rats. The animals were randomly divided into […] according to the body weight: normal control group, model control group, sulfasalazine group (300 mg/Kg), dexamethasone group (0.1 mg/Kg), the compound in Example 26 group (30 mg/kg) and the compound in Example 27 group (30 mg/kg), with 8 rats in each group. The animals were anesthetized with isoflurane. A specially made gavage device (made by a rat gavage device having the diameter of 2 mm, which was nested on a mouse gavage device having the diameter of 1 mm) was slowly inserted into the enteric cavity at 8 cm from the anus. The model control group, the compound in Example 26 group and the compound in Example 27 group were administered with 0.5 mL of 50 mg/mL DNBS in 30% ethanol solution. The normal control group was administered with 0.5 mL of 30% ethanol solution. The animals were inverted in anesthesia for 15 minutes after the gavage device was removed. The day when the model was prepared was the first day of the experiment. After 4 hours of DNBS induction, the corresponding drug or the corresponding volume of 1% CMC-Na was administered once per day. On the sixth day of the experiment, the animals were euthanized to observe the results of each index so as to score the colon adhesion degree, measure the length of colon and ulcer area, weigh colon and calculate the colon weight to length ratio.
The compound in Example 26 and Example 27, sulfasalazine and dexamethasone: Preparation Method: Suspended with 1% CMC-Na, and prepared when it was needed.
Levene's Test for homogeneity of data was performed with Spss. Where the data were homogeneous (P>0.05), one-way ANOVA LSD test was performed. Where the analysis of variance was significant (P≤0.05), Dunnett's multiple comparison (parameter method) was performed. Where the results of Levene's Test were significant (P≤0.05), Kruskal-Wallis nonparametric test was performed. Where the results of Kruskal-Wallis nonparametric test were significant (P≤0.05), Mann-Whitney U test was performed for pairwise comparison.

[2] = test system: DNBS-Induced Inflammatory Bowel Disease Models in Rats; test: Biological Example 3: DNBS-induced inflammatory bowel disease models in rats; assay type: in vivo, Wistar rats; conditions: 30 mg/Kg i.g. qd × 7; for Adhesion Degree of Colon / Colon weight to length ratio / Inhibitory rate of colon adhesion / Inhibitory rate of ulcer area of colon / Inhibitory rate of weight increase per length / Ulcer area of colon: day 7; for Body weight: Mean ± SD
Method: 102 male Wistar rats were fasted for 40 hours. A 5% glucose injection (10 mL/Kg) was administered subcutaneously during fasting. 72 rats with normal conditions and moderate body weight were selected from the fasting rats. The animals were randomly divided into 9 groups according to the body weight (see Table 9. Grouped Table).
The animals were anesthetized with ether after 40 hours fasting. A specially made gavage device was slowly inserted into the enteric cavity at 8 cm from the anus. The model control group and each test group were administered with 0.5 mL of 50 mg/mL DNBS in 30% ethanol solution. The normal control group was administered with 0.5 mL of 30% ethanol solution. The animals were inverted in anesthesia for 15 minutes. The day when the model was prepared was day 0 of the experiment. After 4 hours of DNBS induction, the corresponding drug or the corresponding volume of 1% CMC-Na was administered once per day. On day 7 of the experiment, the animals were euthanized to score the colon adhesion degree, measure the length of colon and ulcer area, weigh colon and calculate the colon weight to length ratio.
One-way ANOVA analysis of the length of colon and colon weight per length of rats was performed by SPSS22. Statistical analyses between groups were performed. The adhesion degree was scored. Mann-Whitney U non-parametric test was performed on ulcer area. Statistical analyses between groups were performed.
Calculation Formula of Inhibitory rate of weight increase per length: (Colon weight to length ratio in model group−Colon weight to length ratio in administration group)/(Colon weight to length ratio in model group−Colon weight to length ratio in blank group)

mice = test: Biological Example 5: acute toxicity experiment of single oral administration in mice; assay type: in vivo; conditions: single oral 1000 mg/Kg, Mean ± SD
Method in brief: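 Fasted ICR mice (19-21 g, three females and three males per group) received a single oral dose of 1000 mg/Kg, given first to one mouse of each sex and then to the remaining four. Behaviour, nervous and autonomic signs, and deaths were recorded over 0-15 min. Animals were then observed for 7 days with daily body weight.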

Compound | Adhesion Degree of Colon [2] [point] | Colon weight to length ratio [2] [mg/cm] | Inhibitory rate of colon adhesion [2] | Inhibitory rate of ulcer area of colon [2] | Inhibitory rate of weight increase per length [2] | Ulcer area of colon [2] | Body weight ([2]; Day 0) [g] | Body weight ([2]; Day 1) [g] | Body weight ([2]; Day 2) [g] | Body weight ([2]; Day 3) [g] | Body weight ([2]; Day 4) [g] | Body weight ([2]; Day 5) [g] | Body weight ([2]; Day 6) [g] | Body weight ([2]; Day 7) [g] | Daily Body Weight (mice; Female mice, Day 1) [g] | Daily Body Weight (mice; Female mice, Day 2) [g] | Daily Body Weight (mice; Female mice, Day 3) [g] | Daily Body Weight (mice; Female mice, Day 4) [g] | Daily Body Weight (mice; Female mice, Day 5) [g] | Daily Body Weight (mice; Female mice, Day 6) [g] | further results
C[C@@H]1C[C@H]2[C@@H]3CCC4=CC(=O)C=C[C@]4(C)[C@@]3(F)[C@@H](O)C[C@]2(C)[C@@]1(O)C(=O)CO [Dexamethasone, dexamethasone, reference compound] | – | – | – | – | – | – | – | – | – | – | – | – | – | – | – | – | – | – | – | – | Adhesion Degree [1]: 0.3 ± 0.5 Points; Colon Length [1]: 14.2 ± 0.9 cm; Colon Weight [1]: 1496.0 ± 450.0 mg; Ulcer Area [1]: 1.4 ± 1.5# cm^2
COCCN1C(=O)CCC(N2C(=O)c3cccc(F)c3C2=O)C1=O (stereo not shown) [Example 4, 4-fluoro-2-(1-(2-methoxyethyl)-2,6-dioxopiperidin-3-yl)isoindolin-1,3-dione] | 0.6 ± 0.7 | 125 ± 34 | 64.7## % | 81.2# % | 38.0% | 0.58 ± 0.78# cm^2 | 137.1 ± 6.2 | 136.2 ± 4.1 | 138.2 ± 6.9 | 141.1 ± 8.8 | 151.8 ± 13.4 | 162.5 ± 13.0 | 170.8 ± 13.0 | 181.0 ± 12.2 | 18.4 ± 0.4 | 21.8 ± 0.5 | 23.2 ± 0.6 | 23.5 ± 1.2 | 24.7 ± 0.9 | 24.2 ± 1.2 | Daily Body Weight (mice; Female mice, Day 7): 24.0 ± 0.8 g; Daily Body Weight (mice; Male mice, Day 1): 17.6 ± 0.2 g; Daily Body Weight (mice; Male mice, Day 2): 22.2 ± 0.3 g; Daily Body Weight (mice; Male mice, Day 3): 23.6 ± 0.6 g; Daily Body Weight (mice; Male mice, Day 4): 24.7 ± 0.6 g; Daily Body Weight (mice; Male mice, Day 5): 26.7 ± 0.4 g; Daily Body Weight (mice; Male mice, Day 6): 27.6 ± 0.8 g; Daily Body Weight (mice; Male mice, Day 7): 28.2 ± 0.1 g
Nc1cccc2c1C(=O)N(C1CCC(=O)N(CCO)C1=O)C2=O (stereo not shown) [Example 6, 4-amino-2-(1-(2-hydroxyethyl)-2,6-dioxopiperidin-3-yl)isoindolin-1,3-dione] | 0.6 ± 0.5 | 99 ± 21 | 64.7# % | 89.0# % | 70.9## % | 0.34 ± 0.54# cm^2 | 137.5 ± 5.6 | 138.1 ± 8.0 | 141.8 ± 13.1 | 147.4 ± 16.5 | 154.5 ± 17.7 | 164.2 ± 16.2 | 169.3 ± 18.4 | 180.9 ± 15.5 | 17.5 ± 0.9 | 21.5 ± 0.9 | 21.6 ± 1.3 | 22.0 ± 1.2 | 22.3 ± 1.9 | 22.4 ± 2.3 | Daily Body Weight (mice; Female mice, Day 7): 22.9 ± 2.0 g; Daily Body Weight (mice; Male mice, Day 1): 18.4 ± 0.6 g; Daily Body Weight (mice; Male mice, Day 2): 21.5 ± 0.9 g; Daily Body Weight (mice; Male mice, Day 3): 21.6 ± 1.3 g; Daily Body Weight (mice; Male mice, Day 4): 25.5 ± 0.5 g; Daily Body Weight (mice; Male mice, Day 5): 25.9 ± 0.9 g; Daily Body Weight (mice; Male mice, Day 6): 26.9 ± 1.1 g; Daily Body Weight (mice; Male mice, Day 7): 27.1 ± 1.1 g
COCCCCN1C(=O)CCC(N2C(=O)c3cccc(N)c3C2=O)C1=O (stereo not shown) [Example 22, 4-amino-2-(1-(4-methoxybutyl)-2,6-dioxopiperidin-3-yl)isoindolin-1,3-dione] | 0.8 ± 0.9 | 112 ± 40 | 52.9# % | 40.5% | 54.4# % | 1.84 ± 2.59 cm^2 | 137.5 ± 7.2 | 137.0 ± 9.0 | 139.7 ± 11.2 | 144.1 ± 12.7 | 152.6 ± 20.0 | 162.7 ± 19.0 | 170.5 ± 17.7 | 178.3 ± 20.7 | 18.5 ± 0.6 | 21.8 ± 0.3 | 22.9 ± 0.4 | 24.0 ± 1.0 | 25.0 ± 0.4 | 25.3 ± 0.6 | Daily Body Weight (mice; Female mice, Day 7): 25.6 ± 0.2 g; Daily Body Weight (mice; Male mice, Day 1): 17.1 ± 0.3 g; Daily Body Weight (mice; Male mice, Day 2): 22.9 ± 0.8 g; Daily Body Weight (mice; Male mice, Day 3): 23.5 ± 0.9 g; Daily Body Weight (mice; Male mice, Day 4): 25.2 ± 0.5 g; Daily Body Weight (mice; Male mice, Day 5): 27.2 ± 1.9 g; Daily Body Weight (mice; Male mice, Day 6): 27.1 ± 1.8 g; Daily Body Weight (mice; Male mice, Day 7): 27.4 ± 1.9 g
